Assay results from patent publication US8900636B2, “Controlled release compositions” (Evonik Corporation, priority 2003, dated 2014).

Assay: Stability of free peptide incubated in release medium (HPLC)
Assay type: physicochemical
Conditions: PBS, pH 7.2, 37° C., after 49 days
Experimental: Octreotide acetate as the free peptide was measured to be 95% intact by high-pressure liquid chromatography (HPLC) following incubation in the release medium (PBS, pH 7.2, 37° C.) after 49 days. In contrast, incubation of octreotide acetate PLGA microparticle formulations produced 55% of modified peptide species after 70 days in the release medium (PBS, pH 7.2, 37° C., Table 2). […] The masses found were consistent with random acylation, for example, peptide plus one or two glycolic or lactic acid monomers in any combination. It may be that acylation products arise from attack on PLGA fragments or the polymer backbone by nucleophilic moieties in octreotide. At a lower pH these moieties likely would be protonated reducing their nucleophilicity and consequently the amount of acylated product. It was observed that formation of acylated byproducts for octreotide acetate PLGA microparticles incubated in 100 mM sodium acetate (NaOAc, pH 4.0) buffer was reduced to 1.25% at 49 days, in marked contrast to the results for PBS buffer (55%).

C[C@@H](O)[C@@H]1NC(=O)[C@H](CCCCN)NC(=O)[C@@H](Cc2c[nH]c3ccccc23)NC(=O)[C@H](Cc2ccccc2)NC(=O)[C@@H](NC(=O)[C@H](N)Cc2ccccc2)CSSC[C@@H](C(=O)N[C@H](CO)[C@@H](C)O)NC1=O [Octreotide acetate, octreotide acetate]
intact peptide by HPLC: 95%
